Tests used:
[1] = cited from earlier work
[2] = system: NK cells; assay: Cytotoxic activity of spleen NK cells from orally treated mice against B16 melanoma cells (LDH release); assay type: in vivo, Balb/c mice; conditions: oral daily for one week; lycopene 2 mg/day or resveratrol 4 mg/day
Description: NK cells were isolated from Balb/c mice spleen. Each group of mice were killed at day 7 post-feeding of lycopene/resveratrol. The spleens were excised and soaked in 75% ethanol for 5 min, and smeared gently on cell sieves. The single cells were collected by flushing the sieve with RPMI-1640 medium. The derived total spleen cells were isolated by centrifugation at 2000 rpm by placing the mixture on the top of lymphocyte separation solution for 25 min. The white-colored lymphocyte layer was recovered carefully, and washed twice with serum-free RPMI-1640 medium, counted and transferred into 6-well plates as the stock. The lymphocytes thus prepared contains 10-20% of NK cells, and used for NK cell assay [Ref. 18: Zhang (2006)].
The B16 melanoma was excised from a tumor-bearing C57 mouse, and soaked in Hank's medium for 30 min. The adipose and necrotic parts of the tumor were removed, and the tumor was cut into small pieces and treated with RPMI-1640 containing 0.1% type II […] at 4° C. for 12 h. […]
NK cells isolated from mice spleen were mixed with B16 melanoma cells at ratios of 25:1, 50:1 and 100:1, and incubated at 37° C. After 5 h, the lactate dehydrogenase (LDH) activities in 100 μl of culture media were measured as the cytolytic activity of NK cells. Cytotoxicity is calculated according to the following formula. […]

SMILES: CC(C)=CCC/C(C)=C/C=C/C(C)=C/C=C/C(C)=C/C=C/C=C(C)/C=C/C=C(C)/C=C/C=C(\C)CCC=C(C)C [lycopene]
- anti-oxidative activity, higher than vitamin E ([1]; relative to vitamin E): 100 folds
- anti-oxidative activity, higher than β-carotene ([1]; relative to β-carotene): 3.2 folds
- NK cytotoxicity change versus control [2]: slight increase (not significantly)

SMILES: Oc1ccc(C=Cc2cc(O)cc(O)c2)cc1 [resveratrol]
- NK cytotoxicity change versus control [2]: slight increase (not significantly)

From patent US8802732B2, “Lycopene and resveratrol compositions for NK cell activation resulting in anti-neoplastic effect” (Hsiehs Biotech (Singapore) Pte Ltd, priority 2009, dated 2014)
